In ChEMBL document CHEMBL1127174, “Inhibition of cartilage breakdown by isothiazolones” (Bioorg Med Chem Lett, 1993):

Organism: Bos taurus
Assay: In vitro ability to inhibit cartilage breakdown by using 1L-1beta stimulated bovine nasal cartilage assay
Assay type: functional

SMILES | IC50
COc1ccc(-n2sc3ncccc3c2=O)cc1 | 13.5 µM
O=c1c2cccnc2sn1-c1ccc(Cl)cc1 | 3.7 µM
COc1ccc(-n2sc3ccccc3c2=O)cc1 | > 30 µM
COc1ccc2cc([C@H](C)C(=O)O)ccc2c1 [NAPROXEN] | > 30 µM
COc1ccc2c(c1)c(CC(=O)O)c(C)n2C(=O)c1ccc(Cl)cc1 [INDOMETHACIN] | > 30 µM
O=c1c2ccccc2sn1-c1ccccc1 | 3 µM
O=c1ccsn1-c1ccccc1 | > 30 µM
O=c1c2ccccc2sn1-c1ccc(Cl)cc1 | 3.6 µM
O=c1c2ccccc2[se]n1-c1ccccc1 [EBSELEN] | 13 µM
Nc1ccccc1C(=O)Nc1ccccc1 | > 30 µM
CN(C)[C@@H]1C(O)=C(C(N)=O)C(=O)[C@@]2(O)C(O)=C3C(=O)c4c(O)cccc4[C@@](C)(O)[C@H]3C[C@@H]12 [TETRACYCLINE] | > 30 µM
O=C(Nc1ccccc1)c1ccccc1O [SALICYLANILIDE] | > 30 µM
CNC(=O)C(Cc1ccc(OC)cc1)NC(=O)[C@H](CC(C)C)[C@H](C)C(=O)NO (single isomer, unassigned) | 3 µM
